# Measured values taken from ChEMBL document CHEMBL1201862, “PubChem BioAssay data set” (2004).
# Active and inactive are the calls of the source.
# What was measured:
# Type in all cases: functional
# [1] = target: Inhibitor of nuclear factor kappa-B kinase subunit beta (Homo sapiens, UniProt O14920)
# [2] = target: Calcium/calmodulin-dependent protein kinase type II subunit delta (Homo sapiens, UniProt Q13557)
# [3] = target: Vascular endothelial growth factor receptor 1 (Homo sapiens, UniProt P17948);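 note: measured within a kinome-wide profiling panel, FLT1 as the panel member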
# Vascular endothelial growth factor receptor 1, sequence (P17948 whole entry): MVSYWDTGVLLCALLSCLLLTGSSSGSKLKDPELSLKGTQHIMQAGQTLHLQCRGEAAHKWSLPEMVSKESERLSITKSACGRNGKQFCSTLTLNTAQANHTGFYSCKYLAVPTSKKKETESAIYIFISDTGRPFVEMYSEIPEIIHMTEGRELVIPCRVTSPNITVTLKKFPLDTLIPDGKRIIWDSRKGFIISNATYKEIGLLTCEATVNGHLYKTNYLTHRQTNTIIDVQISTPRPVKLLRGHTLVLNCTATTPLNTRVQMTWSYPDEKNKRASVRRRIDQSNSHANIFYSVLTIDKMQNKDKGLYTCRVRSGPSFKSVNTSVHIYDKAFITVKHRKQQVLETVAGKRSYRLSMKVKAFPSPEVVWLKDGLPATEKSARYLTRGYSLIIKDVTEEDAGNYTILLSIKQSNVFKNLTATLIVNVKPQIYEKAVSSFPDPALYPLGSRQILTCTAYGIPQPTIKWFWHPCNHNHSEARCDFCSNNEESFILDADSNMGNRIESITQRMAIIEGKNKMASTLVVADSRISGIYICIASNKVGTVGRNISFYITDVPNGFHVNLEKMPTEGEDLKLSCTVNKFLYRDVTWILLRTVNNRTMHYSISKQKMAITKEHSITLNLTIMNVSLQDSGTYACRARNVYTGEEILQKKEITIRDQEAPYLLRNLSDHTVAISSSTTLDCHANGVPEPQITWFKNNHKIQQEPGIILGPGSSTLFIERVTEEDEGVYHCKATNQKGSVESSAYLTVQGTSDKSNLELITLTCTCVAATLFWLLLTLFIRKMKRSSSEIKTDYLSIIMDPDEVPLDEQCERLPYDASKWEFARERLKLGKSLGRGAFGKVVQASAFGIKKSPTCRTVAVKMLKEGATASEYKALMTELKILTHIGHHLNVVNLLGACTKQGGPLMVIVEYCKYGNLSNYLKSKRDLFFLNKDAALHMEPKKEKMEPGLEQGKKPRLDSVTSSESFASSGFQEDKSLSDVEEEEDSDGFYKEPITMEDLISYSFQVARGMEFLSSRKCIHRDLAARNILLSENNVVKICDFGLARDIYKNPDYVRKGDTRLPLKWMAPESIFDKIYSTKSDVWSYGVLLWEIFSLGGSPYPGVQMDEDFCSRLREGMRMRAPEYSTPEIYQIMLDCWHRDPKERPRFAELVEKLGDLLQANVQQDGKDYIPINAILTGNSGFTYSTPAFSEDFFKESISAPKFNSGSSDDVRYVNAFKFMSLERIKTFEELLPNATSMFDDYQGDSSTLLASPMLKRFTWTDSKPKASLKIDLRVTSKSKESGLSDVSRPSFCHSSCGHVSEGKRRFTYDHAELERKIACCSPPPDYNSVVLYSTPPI
# [4] = target: Serine/threonine-protein kinase Nek4 (Homo sapiens, UniProt P51957)
# Serine/threonine-protein kinase Nek4, sequence (P51957 whole entry): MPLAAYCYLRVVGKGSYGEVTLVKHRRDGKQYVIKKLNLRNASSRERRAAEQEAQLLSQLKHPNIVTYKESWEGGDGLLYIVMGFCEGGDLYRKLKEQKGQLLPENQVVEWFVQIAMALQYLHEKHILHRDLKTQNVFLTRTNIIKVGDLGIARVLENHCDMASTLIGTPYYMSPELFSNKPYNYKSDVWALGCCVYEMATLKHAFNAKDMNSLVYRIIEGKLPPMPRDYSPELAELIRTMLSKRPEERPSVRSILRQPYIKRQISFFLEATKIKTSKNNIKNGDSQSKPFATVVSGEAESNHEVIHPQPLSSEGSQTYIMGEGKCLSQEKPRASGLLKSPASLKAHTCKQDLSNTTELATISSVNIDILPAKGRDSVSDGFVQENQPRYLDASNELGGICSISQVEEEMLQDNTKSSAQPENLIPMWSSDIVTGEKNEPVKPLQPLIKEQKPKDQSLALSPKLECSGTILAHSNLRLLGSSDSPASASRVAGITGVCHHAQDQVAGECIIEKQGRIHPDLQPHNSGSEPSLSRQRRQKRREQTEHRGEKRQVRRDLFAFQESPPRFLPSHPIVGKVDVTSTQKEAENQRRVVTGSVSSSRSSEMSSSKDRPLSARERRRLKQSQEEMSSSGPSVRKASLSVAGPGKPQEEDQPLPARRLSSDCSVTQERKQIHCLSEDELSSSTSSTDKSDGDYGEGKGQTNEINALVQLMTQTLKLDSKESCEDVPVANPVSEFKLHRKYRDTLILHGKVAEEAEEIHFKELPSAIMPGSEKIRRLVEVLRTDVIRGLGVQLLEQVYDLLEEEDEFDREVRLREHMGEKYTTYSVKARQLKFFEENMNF
# [5] = target: Testis-specific serine/threonine-protein kinase 1 (Homo sapiens, UniProt Q9BXA7)
# Testis-specific serine/threonine-protein kinase 1, sequence (Q9BXA7 whole entry, canonical isoform): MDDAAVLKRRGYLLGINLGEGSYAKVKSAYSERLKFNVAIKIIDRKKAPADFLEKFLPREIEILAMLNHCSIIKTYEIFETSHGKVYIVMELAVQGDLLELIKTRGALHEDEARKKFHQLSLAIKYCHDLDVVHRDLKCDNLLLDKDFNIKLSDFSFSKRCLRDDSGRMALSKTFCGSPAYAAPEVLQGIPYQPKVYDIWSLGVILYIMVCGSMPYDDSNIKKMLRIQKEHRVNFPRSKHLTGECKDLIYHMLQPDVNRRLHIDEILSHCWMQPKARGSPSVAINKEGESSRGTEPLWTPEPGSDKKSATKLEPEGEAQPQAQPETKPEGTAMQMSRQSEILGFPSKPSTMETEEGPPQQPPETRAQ
# [6] = target: Casein kinase I isoform gamma-1 (Homo sapiens, UniProt Q9HCP0);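 note: measured as the CSNK1G1 member of a kinome profiling panel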
# Casein kinase I isoform gamma-1, sequence (Q9HCP0 whole entry, canonical isoform): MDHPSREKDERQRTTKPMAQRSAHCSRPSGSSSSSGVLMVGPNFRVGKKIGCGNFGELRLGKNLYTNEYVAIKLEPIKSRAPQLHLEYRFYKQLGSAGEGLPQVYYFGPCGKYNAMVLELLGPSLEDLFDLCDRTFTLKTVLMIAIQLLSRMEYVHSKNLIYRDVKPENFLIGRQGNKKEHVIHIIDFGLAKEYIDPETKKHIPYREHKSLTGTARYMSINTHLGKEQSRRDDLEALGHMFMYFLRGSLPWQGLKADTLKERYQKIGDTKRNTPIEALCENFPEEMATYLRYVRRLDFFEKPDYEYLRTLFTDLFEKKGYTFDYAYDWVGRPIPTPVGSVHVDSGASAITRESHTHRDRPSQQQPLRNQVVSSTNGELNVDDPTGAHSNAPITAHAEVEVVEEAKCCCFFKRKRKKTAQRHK
# Inhibitor of nuclear factor kappa-B kinase subunit beta, sequence (O14920 whole entry): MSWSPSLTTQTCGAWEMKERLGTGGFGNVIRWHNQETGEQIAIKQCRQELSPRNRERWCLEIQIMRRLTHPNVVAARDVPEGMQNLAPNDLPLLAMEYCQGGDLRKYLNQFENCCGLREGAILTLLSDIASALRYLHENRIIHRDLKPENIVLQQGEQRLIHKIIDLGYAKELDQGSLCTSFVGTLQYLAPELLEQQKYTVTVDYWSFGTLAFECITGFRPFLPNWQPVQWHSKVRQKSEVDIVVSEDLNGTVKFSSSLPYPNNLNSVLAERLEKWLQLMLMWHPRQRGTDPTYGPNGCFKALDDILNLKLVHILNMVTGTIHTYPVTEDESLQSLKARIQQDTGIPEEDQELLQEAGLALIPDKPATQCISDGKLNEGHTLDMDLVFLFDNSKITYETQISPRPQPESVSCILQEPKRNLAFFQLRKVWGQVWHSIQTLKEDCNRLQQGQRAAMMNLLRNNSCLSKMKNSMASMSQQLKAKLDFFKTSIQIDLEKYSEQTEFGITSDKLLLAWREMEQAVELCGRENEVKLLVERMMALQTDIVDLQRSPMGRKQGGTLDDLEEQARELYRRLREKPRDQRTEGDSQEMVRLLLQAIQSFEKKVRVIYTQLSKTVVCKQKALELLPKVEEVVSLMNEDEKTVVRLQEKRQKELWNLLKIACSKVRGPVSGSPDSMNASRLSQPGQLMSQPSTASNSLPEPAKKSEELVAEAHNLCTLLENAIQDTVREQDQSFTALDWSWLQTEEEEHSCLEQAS
# Calcium/calmodulin-dependent protein kinase type II subunit delta, sequence (Q13557 whole entry): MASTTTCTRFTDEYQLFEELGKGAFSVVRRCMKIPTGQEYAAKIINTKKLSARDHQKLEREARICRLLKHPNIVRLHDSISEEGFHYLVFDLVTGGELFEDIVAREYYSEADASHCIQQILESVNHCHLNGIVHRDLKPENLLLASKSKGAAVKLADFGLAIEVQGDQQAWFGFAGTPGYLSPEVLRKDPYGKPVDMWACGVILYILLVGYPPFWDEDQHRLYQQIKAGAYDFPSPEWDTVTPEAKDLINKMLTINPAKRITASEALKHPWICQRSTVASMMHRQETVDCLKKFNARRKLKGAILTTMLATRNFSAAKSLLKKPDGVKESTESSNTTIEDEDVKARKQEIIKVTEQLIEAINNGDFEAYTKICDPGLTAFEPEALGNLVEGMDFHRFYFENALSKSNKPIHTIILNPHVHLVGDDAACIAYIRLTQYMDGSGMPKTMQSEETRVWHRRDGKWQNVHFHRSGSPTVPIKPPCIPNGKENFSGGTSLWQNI
Ki [1],Ki [2],Ki [3],Ki [4],Ki [5],Ki [6],SMILES
> 3.16 µM (inactive),,,,,,Cc1c(C=O)c(O)n2c(nc3ccccc32)c1C#N
,0.00501 µM (active),> 0.398 µM (inactive),0.316 µM (active),0.0316 µM (active),0.0631 µM (active),Cc1n[nH]c2cnc(-c3cncc(OCC(N)Cc4cccc(C(F)(F)F)c4)c3)cc12 (stereo unspecified)
